Data: publication PMC2678132, “Solution structure of the parvulin-type PPIase domain of Staphylococcus aureus PrsA – Implications for the catalytic mechanism of parvulins” (BMC Structural Biology, 2009)

Molecular target: T1, S. aureus PrsA-PPIase (Staphylococcus aureus, UniProt P60747)
T1 construct: parvulin-type PPIase domain, residues 140-245, GST fusion (pGEX-2T) from E. coli BL21, GST cleaved off by protease; 15N- or 13C/15N-labelled for NMR
Assay: NMR titration
Type: binding
Conditions: S1-H1 loop; data not shown

T1 sequence (P60747 140-245): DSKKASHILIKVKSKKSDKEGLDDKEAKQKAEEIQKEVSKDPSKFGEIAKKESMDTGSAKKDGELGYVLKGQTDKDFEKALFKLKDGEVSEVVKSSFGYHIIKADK

## O=S(=O)(O)O [sodium sulphate]
  NMR titration: Binding of multivalent anions to the S1-H1 loop of PrsA-PPIase was also confirmed by NMR titrations
